From patent US20160038551A1, “STABILIZED MESEMBRINE COMPOSITIONS” (BOTANICAL RESOURCE HOLDINGS PROPRIETARY LIMITED, priority 2013, published 2016) come the findings set out here.

The subject of the test is serotonin-uptake. Put plainly: Serotonin-uptake inhibition studies. To be noted: extensive studies conducted in respect of the present invention; no details.

`COc1ccc([C@@]23CCC(=O)C[C@@H]2N(C)CC3)cc1OC` [mesembrine]: the serotonin-uptake inhibition properties result is on record as “do not show serotonin-uptake inhibition properties”.
